In ChEMBL document CHEMBL1159245, “Antineoplastic agents, 326. The stereochemistry of bastadins 8, 10, and 12 from the Bismarck archipelago marine sponge Ianthella basta” (J Nat Prod, 1995):
Values after ≈ are worked out from the molar mass of the structure shown. Active and inactive are the calls of the source. No cut-off for these calls is given here.

Experiments:
KM-20L2 = test: Growth inhibition of human KM20L2 cells; assay type: functional; details: read-out: ED50 (the source's name)
P388 = test: Growth inhibition of mouse P388 cells; assay type: functional; details: read-out: ED50 (the source's name)
OVCAR-3 = test: Growth inhibition of human OVCAR-3 cells; assay type: functional; details: read-out: ED50 (the source's name)
[1] = Growth inhibition of human SF295 cells; assay type: cell-based, SF-295; details: read-out: ED50 (the source's name)
A498 = test: Growth inhibition of human A498 cells; assay type: functional; details: read-out: ED50 (the source's name)
NCI-H460 = test: Growth inhibition of human NCI-H460 cells; assay type: functional; details: read-out: ED50 (the source's name)
SK-MEL-5 = test: Growth inhibition of human SK-MEL-5 cells; assay type: functional; details: read-out: ED50 (the source's name)
Escherichia coli = test: Antibacterial activity against Escherichia coli ATCC 25922 at […] after 16 hrs; assay type: functional, organism-based
Neisseria gonorrhoeae = test: Antibacterial activity against Neisseria gonorrhoeae ATCC 49226 at […] after 16 hrs; assay type: functional, organism-based
Enterococcus faecalis = test: Antibacterial activity against Enterococcus faecalis ATCC 29212 assessed per 6 mm disk after 16 hrs; assay type: functional
Staphylococcus aureus = test: Antibacterial activity against Staphylococcus aureus ATCC 29213 assessed per 6 mm disk after 16 hrs; assay type: functional
Candida albicans = test: Antifungal activity against Candida albicans ATCC 90028 at […] after 42 hrs; assay type: functional, organism-based
Cryptococcus neoformans = test: Antifungal activity against Cryptococcus neoformans ATCC 90112 at […] after 42 hrs; assay type: functional, organism-based
Bacillus subtilis = test: Antibacterial activity against Bacillus subtilis; assay type: functional

With `O=C1NCCc2cc(Br)c(O)c(c2)Oc2ccc(cc2Br)[C@H](O)CNC(=O)/C(=N/O)Cc2cc(Br)c(O)c(c2)Oc2c(Br)cc(cc2Br)C/C1=N\O` [BASTADIN 8] the EC50 (KM-20L2) was over 10 µg/mL, the EC50 (P388) was 22.6 µg/mL (≈ 21.8 µM) and the EC50 (OVCAR-3) was over 10 µg/mL. It also gave a GI50 [1] of over 10 µg/mL, an EC50 (A498) of 7 µg/mL (≈ 6.76 µM) and an EC50 (NCI-H460) of over 10 µg/mL. The EC50 (SK-MEL-5) was 9.9 µg/mL (≈ 9.56 µM), the Activity (Escherichia coli) was “inactive” and the Activity (Neisseria gonorrhoeae) was “inactive”. The MIC (Enterococcus faecalis) was under 50 µg, the MIC (Staphylococcus aureus) was 0.195 µg and the Activity (Candida albicans) was “inactive”. For the same molecule, the Activity (Cryptococcus neoformans) was “inactive”.
Work on `O=C1NCCc2cc(Br)c(O)c(c2)Oc2ccc(cc2Br)[C@H](O)CNC(=O)/C(=N/O)Cc2cc(Br)c(O)c(c2)Oc2ccc(cc2Br)C/C1=N\O` [BASTADIN 10] yielded an EC50 (KM-20L2) of 2 µg/mL (≈ 2.09 µM), an EC50 (P388) of over 10 µg/mL and an EC50 (OVCAR-3) of 2.9 µg/mL (≈ 3.03 µM). It also gave a GI50 [1] of 3.2 µg/mL (≈ 3.35 µM), an EC50 (A498) of 4.5 µg/mL (≈ 4.71 µM) and an EC50 (NCI-H460) of 3.4 µg/mL (≈ 3.56 µM). The EC50 (SK-MEL-5) was 3.7 µg/mL (≈ 3.87 µM), the Activity (Escherichia coli) was “inactive” and the Activity (Neisseria gonorrhoeae) was “inactive”. For the same molecule, the MIC (Enterococcus faecalis) was 6.25 µg, the MIC (Staphylococcus aureus) was 1.56 µg and the Activity (Candida albicans) was “inactive”. The Activity (Cryptococcus neoformans) was “inactive”.
For `O=C1NCCc2cc(Br)c(O)c(c2)Oc2c(Br)cc(cc2Br)[C@H](O)CNC(=O)/C(=N/O)Cc2cc(Br)c(O)c(c2)Oc2ccc(cc2Br)C/C1=N\O` [BASTADIN 12], the EC50 (KM-20L2) was 2.1 µg/mL (≈ 2.03 µM), the EC50 (P388) was 9.1 µg/mL (≈ 8.79 µM) and the EC50 (OVCAR-3) was 2 µg/mL (≈ 1.93 µM). The GI50 [1] was 2.4 µg/mL (≈ 2.32 µM), the EC50 (A498) was 2.1 µg/mL (≈ 2.03 µM) and the EC50 (NCI-H460) was 2.3 µg/mL (≈ 2.22 µM). For the same molecule, the EC50 (SK-MEL-5) was 2.2 µg/mL (≈ 2.13 µM), the Activity (Escherichia coli) was “inactive” and the Activity (Neisseria gonorrhoeae) was “inactive”. The MIC (Enterococcus faecalis) was 50 µg, the MIC (Staphylococcus aureus) was 6.25 µg and the Activity (Candida albicans) was “inactive”. For the same molecule, the Activity (Cryptococcus neoformans) was “inactive”.
`O=C1NCCc2ccc(c(Br)c2)Oc2cc(ccc2O)CCNC(=O)/C(=N/O)Cc2cc(Br)c(O)c(c2)Oc2c(Br)cc(cc2Br)C/C1=N\O` [BASTADIN 13] showed an MIC (Bacillus subtilis) of 6 µg/mL (≈ 6.38 µM).
